≈ marks a conversion by molar mass, not a printed value.
Columns and labels:
[1] = Solubility in sodium phosphate buffer; assay type: physicochemical; details: pH 7.4
[2] = target: T1, recombinant purified human sEH (Homo sapiens, UniProt P34913); assay: sEH inhibition, kinetic fluorescent assay with CMNPC substrate; assay type: biochemical
T1 sequence (P34913 1-555): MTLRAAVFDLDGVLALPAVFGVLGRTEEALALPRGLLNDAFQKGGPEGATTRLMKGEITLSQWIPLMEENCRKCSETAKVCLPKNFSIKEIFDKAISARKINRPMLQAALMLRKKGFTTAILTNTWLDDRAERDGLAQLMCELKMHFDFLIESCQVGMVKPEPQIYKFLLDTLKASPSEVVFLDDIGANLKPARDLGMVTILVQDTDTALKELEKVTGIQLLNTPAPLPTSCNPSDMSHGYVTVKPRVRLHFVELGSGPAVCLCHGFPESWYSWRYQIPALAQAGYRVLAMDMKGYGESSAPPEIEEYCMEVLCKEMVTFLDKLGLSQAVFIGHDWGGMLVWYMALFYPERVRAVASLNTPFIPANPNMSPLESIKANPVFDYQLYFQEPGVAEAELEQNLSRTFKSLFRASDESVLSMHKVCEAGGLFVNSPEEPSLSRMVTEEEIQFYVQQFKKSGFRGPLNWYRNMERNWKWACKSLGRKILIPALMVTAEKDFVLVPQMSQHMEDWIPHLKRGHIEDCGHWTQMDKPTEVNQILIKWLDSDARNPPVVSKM

Compound	solubility [1] [µM]	fold less active than corresponding 1,3-disubstituted urea ([2]; relative to 3f) [fold]	IC50 [2] [nM]	fold less potent ([2]; relative to 3d) [fold]
Cc1ccc(-c2cc(CNC(=O)NCC34CC5CC(CC(C5)C3)C4)no2)cc1 [3a]	75 to 100 (≈ 28.5 to 38 µg/mL)			
CC(C)c1cc(C2CCCN2C(=O)NCC23CC4CC(CC(C4)C2)C3)no1 (centres unmarked) [3k]		> 5		
Cc1ccc(-c2cc(CNC(=O)NC34CC5CC(C)(CC(C)(C5)C3)C4)no2)cc1 [4a]	125 to 150 (≈ 49.2 to 59 µg/mL)		28.8 ± 4.5	
O=C(NCc1cc(-c2cccc(F)c2)no1)NCC12CC3CC(CC(C3)C1)C2 [3g]	75 to 100 (≈ 28.8 to 38.3 µg/mL)		13.7 ± 3	
CC(C)c1cc(CNC(=O)NCC23CC4CC(CC(C4)C2)C3)on1 [3f]	125 to 150 (≈ 41.4 to 49.7 µg/mL)			
COc1ccc(-c2cc(CNC(=O)NCC34CC5CC(CC(C5)C3)C4)no2)cc1 [3b]	100 to 125 (≈ 39.6 to 49.4 µg/mL)			
COc1ccc(-c2cc(CNC(=O)NC34CC5CC(C)(CC(C)(C5)C3)C4)no2)cc1 [4b]	25 to 50 (≈ 10.2 to 20.5 µg/mL)		18 ± 2.9	
Cc1cc(CNC(=O)NCC23CC4CC(CC(C4)C2)C3)on1 [3d]	450 to 475 (≈ 137 to 144 µg/mL)		9.9 ± 2.9	
Cc1cc(CNC(=O)NC23CC4CC(C)(CC(C)(C4)C2)C3)on1 [4d]	200 to 225 (≈ 63.5 to 71.4 µg/mL)		111 ± 10.3	10
O=C(NCc1cc(-c2ccco2)on1)NCC12CC3CC(CC(C3)C1)C2 [3c]	75 to 100 (≈ 26.7 to 35.5 µg/mL)			
CC12CC3CC(C)(C1)CC(NC(=O)NCc1cc(-c4ccco4)on1)(C3)C2 [4c]	75 to 100 (≈ 27.7 to 36.9 µg/mL)		4.8 ± 0.6	
CC12CC3CC(C)(C1)CC(NC(=O)NCc1cc(-c4cccc(F)c4)no1)(C3)C2 [4g]	75 to 100 (≈ 29.8 to 39.7 µg/mL)		14.2 ± 2.5	
